Assay results reported in article PMC11106165, “Repurposing the KCa3.1 Blocker Senicapoc for Ischemic Stroke” (Translational Stroke Research, 2023).

Tests used:
rats or mice, tMCAO = test system: rats or mice, tMCAO; parameters: method as in PMID 21750563, PMID 26661208; details: cited from earlier work
human tPA = biological target: T1, human tPA (Homo sapiens, UniProt P00750); assay: Chromogenic tPA activity assay; assay type: biochemical; details: 30-min assay
T1 construct: purchased Abcam ab108905
T1 sequence (P00750 36-562): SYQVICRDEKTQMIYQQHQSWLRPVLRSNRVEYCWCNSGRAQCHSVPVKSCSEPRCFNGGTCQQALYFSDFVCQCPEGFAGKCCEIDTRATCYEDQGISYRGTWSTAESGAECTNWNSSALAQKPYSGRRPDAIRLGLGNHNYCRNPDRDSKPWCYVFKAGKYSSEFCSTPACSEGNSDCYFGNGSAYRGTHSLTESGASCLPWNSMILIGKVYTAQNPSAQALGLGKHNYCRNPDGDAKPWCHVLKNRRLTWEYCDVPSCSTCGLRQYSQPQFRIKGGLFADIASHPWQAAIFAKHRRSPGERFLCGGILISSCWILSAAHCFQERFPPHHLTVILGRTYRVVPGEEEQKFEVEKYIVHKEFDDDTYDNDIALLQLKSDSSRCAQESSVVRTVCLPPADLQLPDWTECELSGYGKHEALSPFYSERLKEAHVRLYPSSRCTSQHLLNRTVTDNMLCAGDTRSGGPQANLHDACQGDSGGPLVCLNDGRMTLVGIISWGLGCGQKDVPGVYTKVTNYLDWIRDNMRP
Text: The commercially available tPA Activity Assay Kit (Abcam, ab108905) was used to assess whether senicapoc and TRAM-34 affect the ability of human tPA to cleave its substrate plasminogen similar to protocols published by Lapchak and Boitano [38] and Lapchak et al.. Reactions were run in optically clear flat-bottom 96-well plates (Corning, Catalog #3904). Human plasminogen activator inhibitor-1 (PAI-1; Sigma-Aldrich CC4075) was used as a positive control. Human plasminogen, the chromogenic plasmin substrate, and human tPA were included in the tPA Activity Assay Kit. […] The reactions were pre-incubated at 37 °C for 5 min prior to the addition of the chromogenic plasmin substrate and subsequently placed in a heated SpectraMax M5 spectrophotometer. Absorbances at 405 nm were measured every 30 s for 30 min.

[1] = parameters: method as in PMID 22675649; details: cited from earlier work

Row | Compound | reduction in infarct area (rats or mice, tMCAO; MCAO, 11 animals per group) | infarct area (rats or mice, tMCAO; rats or mice, 8 days after tMCAO with reperfusion) | effect on tPA activity (absorbance at 405 nm) (human tPA; 0.5 μM and 5 μM, PBS with 10% human serum) | metabolic stability [1] | oral availability [1] | half-life ([1]; rats and primates) | effect on tPA activity (absorbance at 405 nm) (human tPA; positive control)
1 | Clc1ccccc1C(c1ccccc1)(c1ccccc1)n1cccn1 [TRAM-34] | ~ 50% | significantly smaller infarct areas | do not interfere with tPA activity | metabolic instability | not orally available | ~ 2 h | –
2 | plasminogen activator inhibitor-1 [PAI-1] | – | – | – | – | – | – | strongly inhibited
